# Source: patent publication US10905777B2, “Systems and methods for nucleic acid expression in vivo” (DNARx, priority 2015, dated 2021)
# B1: Neupogen: recombinant human G-CSF protein (protein, UniProt P09919 31-207, looked up)
# Granulocyte …: TPLGPASSLPQSFLLKCLEQVRKIQGDGAALQEKLVSECATYKLCHPEELVLLGHSLGIPWAPLSSCPSQALQLAGCLSQLHSGLFLYQGLLQALEGISPELGPTLDTLQLDVADFATTIWQQMEELGMAPALQPTQGAMPAFASAFQRRAGGVLVASHLQSFLEVSYRVLRHLAQP
# modifications: filgrastim
# What was measured:
# luciferase [1] = assay: Mouse lung luciferase activity after IV DNA vector delivery; format: in vivo; details: mice, day 7
# Description: Lung was homogenized with 500 ul of 1× Lysis buffer (Promega, Wis.). The homogenate was centrifuged at 3000×g at 4C for 10 min. and the supernatant collected. Luciferase activity was assayed using 20 μl of supernatant and 100 μl of Luciferase reagent for 10 seconds using a GloMax® Luminometer (Promega, Wis.).
# In each case, cationic liposome injection was followed two minutes later by IV injection of 40 μg of an mCMV-EF1-luciferase, CPG-free, single cassette, DNA vector. […]
# luciferase [2] = assay: Mouse spleen luciferase levels after IV PEI:EF-1 Luc DNA complexes with drug pre-injection; format: in vivo; details: mice; day 1; IP drug two hours prior to IV PEI:DNA (12.5 μg); amlexanox 200 μg, chloroquine 1 mg, SAHA 200 μg, tofacitinib 300 μg per mouse
# Rituximab = assay: Serum Rituximab ELISA in mice after sequential injection of Rituximab DNA vector; format: in vivo; details: 24 hours, IP pre-treatment (VPA 15 or 2 mg/kg, Theo 30 or 15 mg/kg), 1050 nmoles DexP liposomes, 75 ug DNA, Dex
# Description: Mice were bled and serum isolated as for G-CSF. Rituximab levels were measured using an Immunoguide ELISA obtained from Eagle Biosciences, and performed according to instructions. […] .
# . […] Numbered plasmids (in FIG. 30) were codon-optimized versions of the original, CpG-free but not codon optimized Rituximab DNA sequence.
# . […] Thus, significant Rituximab serum levels can be produced by either dual- or single-cassette, 2A peptide-containing DNA vectors.
# . Mock-injected mice received LR only without lipid or DNA. Serum levels of Rituximab protein and ALT were assayed 24 hrs later.
# human factor IX = assay: Human Factor IX ELISA in mice; details: 24 hrs, IP pre-treatment (VPA 2 mg/kg, Theo 30 mg/kg), 1500 nmoles DexP DOTAP SUV, 60 ug factor IX vector, Dex
# Description: In this Example, three mice were injected per group. […] This was followed two minutes later by a single IV injection of 60 ug of a codon optimized, EF-1-driven single cassette DNA vector encoding the human factor IX cDNA (see constructs in FIGS. 38 and 44). […] Where indicated, animals were also pretreated by IP injection of 2 mg/kg Valproic Acid (VPA) or 30 mg/kg Theophylline (Theo). […] Each mouse was bled as for G-CSF. Blood was collected into tubes containing Potassium EDTA or Sodium Citrate to prevent coagulation and centrifuged to obtain plasma. An AssayPro ELISA specific to human Factor IX was used according to manufacturer's instructions to measure Factor IX expression.
# human G-CSF = assay: Serum human G-CSF ELISA in mice after sequential IV cationic liposome then CPG-free DNA vector injection; format: in vivo; details: IP 2 hours before and 2 hours after 900 nmol DOTAP SUV then 70 ug DNA, dexamethasone 40 mg/kg, Tofacitinib 15 mg/kg
# Description: Three to five mice were injected per group.
# Each mouse was anesthetized and then bled via the submandibular vein. Serum was then isolated from whole blood and human G-CSF levels measured in pg/ml, as performed strictly according to the manufacturer's specifications, using an R and D systems human G-CSF ELISA.
# Five mice were injected per group. […] Serum hG-CSF levels were assessed beginning at day seven after IV injection, and at seven-day intervals thereafter.
# Sera were collected from groups of four mice at either day 6 or 14 following sequential, IV injection of 800 nmoles of pure DOTAP MLV cationic liposomes, followed two minutes later by IV injection of 40 μg either an EF1-luciferase—EF1-hGCSF (2 expression cassette) or an EF1-hGCSF (1 expression cassette), CPG-free, single plasmid DNA vector.
# Sera were collected from groups of four mice at day 1 following sequential, IV injection of buffer alone (control), 1000 nmoles of pure DOTAP SUV cationic liposomes, alone or co-injected with 1000 nmol of neutral MLV, followed two minutes later by IV injection of 120 μg an EF1-luciferase—EF1-hGCSF (2 expression cassette), CPG-free, single plasmid DNA vector or 1400 nmoles of pure DOTAP SUV cationic liposomes, alone or co-injected with 1000 nmol of neutral MLV, followed two minutes later by IV injection of 100 μg of EF1-luciferase—EF1-hGCSF DNA. […]
# [3] = system: CD20-expressing human Raji B cells; assay: FACS binding to Raji cells; format: cell-based; details: anti-human IgG-PE, serum six weeks after injection
# Description: In this Example, Raji cells (1 million/sample) were incubated with mouse serum samples or recombinant Rituximab (50 ng/ml) for 1 hr at 4C, in FACS binding buffer containing EDTA and 0.5% BSA. Following washes, samples were incubated with fluorescently labeled secondary antibody (anti-human IgG-PE) for 30 min, washed and analyzed using an Accuri flow cytometer. Between 3500-5000 events were recorded for each sample. The experiment was repeated twice with similar results.
# [4] = in vivo; cited from earlier work
# [5] = drug with 800 nmoles DOTAP MLV (L-arginine 2 mg/kg, colchicine 0.01 mg/kg, dexamethasone 1 mg/kg) then 40 μg single cassette mCMV-EF1-luciferase
# [6] = drug with 800 nmoles DOTAP MLV then 40 μg dual cassette EF1-luciferase—EF1-hGCSF
molecule,measurement,setting,value
N=C(N)NCCC[C@H](N)C(=O)O [L-arginine],luciferase activity in the lung vs DOTAP MLV alone (control),luciferase [1]; [5],failed to increase gene expression levels
same,luciferase activity in the lung vs DOTAP MLV alone (control),luciferase [1]; [6],either lower than or comparable to controls
"O=C(CCCCCCC(=O)Nc1ccccc1)NO [SAHA, suberanilohydroxamic acid]",spleen gene expression (luciferase) levels,luciferase [2],increased gene expression levels
Cn1c(=O)c2[nH]cnc2n(C)c1=O [Theophylline],serum Rituximab levels,Rituximab,significantly increased
same,serum human factor IX levels,human factor IX,significantly higher
CC(C)c1ccc2oc3nc(N)c(C(=O)O)cc3c(=O)c2c1 [amlexanox],spleen gene expression (luciferase) levels,luciferase [2],increased gene expression levels
CCN(CC)CCCC(C)Nc1ccnc2cc(Cl)ccc12 (centres unmarked) [chloroquine],spleen gene expression (luciferase) levels,luciferase [2],increased gene expression levels
COc1cc2c(c(OC)c1OC)-c1ccc(OC)c(=O)cc1[C@@H](NC(C)=O)CC2 [colchicine],luciferase activity in the lung vs DOTAP MLV alone (control),luciferase [1]; [5],higher luciferase activity
CCCc1nn(C)c2c(=O)[nH]c(-c3cc(S(=O)(=O)N4CCN(C)CC4)ccc3OCC)nc12 [sildenafil],luciferase activity in the lung vs DOTAP MLV alone (control),luciferase [1]; [6],higher luciferase activity
C[C@@H]1CCN(C(=O)CC#N)C[C@@H]1N(C)c1ncnc2[nH]ccc12 [tofacitinib],HuG-CSF protein levels,human G-CSF,did neither
CCCC(CCC)C(=O)O [valproic acid],serum Rituximab levels,Rituximab,significantly increased
same,serum human factor IX levels,human factor IX,significantly higher
Recombinant Rituximab: recombinant Rituximab (anti-CD20) protein used as reference,Mean Fluorescence Intensity,[3],5781.87
B1,time for serum hG-CSF levels to return to baseline,[4],approximately 14 hours
